Laboratory results reported in US5932619A, “Method for preventing sexually transmitted diseases” (Rush-Presbyterian, St. Luke's Medical Center, priority 1997, dated 1999).
Converted amounts (≈) assume the structure as drawn. “Also recorded” adds a separate entry of the source.

Key:
Lactobacillus gasseri = assay: Growth of normal vaginal flora bacterium in culture; type: cell-based
Procedure: This example illustrates the effect of the inhibitory agents of this invention on the normal vaginal flora. Lactobacillus gasseri, which is found in normal vaginal flora, was obtained from the American Type Culture Collection (Rockville, Md.) and cultured under anaerobic conditions at 37° C. in the presence of the desired test agents. Control samples without added test agents were also run. Samples were collected at twenty minute intervals starting at 120 minutes after the start of incubation through 240 minutes. The absorbance at 550 nm was used to estimate the cell density and inhibitory effects. Nonoxynol-9 was also evaluated for comparison purposes.

[1] = system: sheep testicular hyaluronidase; assay: Hyaluronidase inhibition (hyaluronic acid hydrolysis); type: biochemical; details: for IC50: pH 5.5, 10 minutes preincubation
Procedure: Hyaluronidase activity was quantitatively determined by measuring the extent of hyaluronic acid hydrolysis (i.e., the concentration of N-acetylglucosamine-reactive material formed from enzyme activity). Reaction mixtures (0.25 ml) containing the following were prepared: test compound (variable concentration); 0.1 M sodium acetate; 0.15 M sodium chloride; pH adjusted to 5.5; 7.2 units sheep testicular hyaluronidase (Sigma, Type III; H-2251) contained in an acetate buffer; 0.3 mg/ml hyaluronic acid (Sigma, from bovine vitreous humor; H-7630). The enzyme was preincubated with the test agent (1 mg/ml for screening purposes) for 10 minutes before starting the reaction by the addition of hyaluronic acid. The enzyme reaction was determined using the method of Aronson and Davidson (J. Biol. Chem. 241 437-440 (1967)). The reaction mixture was incubated for 30 minutes at room temperature. The reaction product was determined colorimetrically with p-dimethylaminobenzaldehyde (Reissig et al., J. Biol. Chem. 217 959-966 (1965)) by measuring the absorbance at 545 nm.
The reversibility of the hyaluronidase was determined by evaluating enzyme activity at different levels of enzyme (Ackermann and Potter, Proc. Soc. Exp. Biol. Med. 72 1-9 (1949)).

[2] = system: vaginal/cervical epithelial and other cells; details: concentrations as low as; cited from earlier work
MT2 cells = assay: Cytotoxicity towards host cells of the viral binding assay; type: cell-based; details: at the levels of the HIV viral binding assay
Procedure: Serial dilutions of the test compounds (ranging from 0.1 μg/ml to 1.0 mg/ml) were added to HIV-1 virus such that 50 μl inoculum produced between 70 to 100 syncytia per well in untreated wells containing MT2 cells. The HIV-1 used was strain III, propagated in, and harvested from, a T4-lymphobastoid cell line. Each serial dilution of the test compound with virus was placed in each of three wells containing MT2 cells. The test compound alone was added to a fourth well containing MT2 cells to test for possible cytotoxicity. Triplicate virus control samples (no added test compounds but containing the equivalent amounts of the RPMI medium) were also included.

Neisseria gonorrhea = assay: Bacterial multiplication assay (gonococci); type: cell-based
Procedure: This example illustrates the inhibitory effect for several of the inhibitory agents of this invention on Neisseria gonorrhea using a bacterial multiplication assay. Neisseria gonorrhea isolated from local uncomplicated cases of gonorrhea was verified by Gram stain, oxidase reactivity, and sugar fermentation. The titer of log-phase cultures was adjusted by dilution in GC broth to about 10^8 colony forming units per milliliter. Samples were diluted with broth containing no additives (control) and serial dilutions of the test agents (1000 μg/ml to 0.1 μg/ml). The resulting cultures were incubated at 37° C. for 4 hours. Five serial dilutions were made with GC broth; each dilution was inoculated onto GC agar plates. The inoculated plates were incubated overnight at 37° C. and the resultant gonococcal colonies were counted using bright-field microscopy.

sperm = assay: Sperm acrosomal loss; type: cell-based; details: 0.5 μg/ml, read-out: maximal acrosomal loss induced
rabbit spermatozoa [3] = assay: Motility of rabbit sperm in the contraceptive test; type: cell-based; details: rabbit sperm in TALP buffer
Procedure: Rabbit spermatozoa were collected and then diluted in a TALP buffer containing glucose, lactate, and pyruvate. Test compounds were dissolved in the same buffer system. […] Female rabbits were then artificially inseminated with about 0.5 ml of buffer containing about 22.5-30×10^6 sperm. For controls (i.e., sperm and buffer containing no added contraceptive agents), fertilization averaged about 96 percent.

spermatozoa = type: cell-based; details: concentrations as high as 20 mg/ml
HIV-1 = assay: Viral binding inhibition assay (syncytia formation in MT2 cells); type: cell-based, HIV-1 (strain III)
Procedure: Cultures of MT2 cells (plated in 96-well cell culture plates at about 10,000 cells per well) were grown in a RPMI 1640 medium (Gibco, cat. no. 320-1867AG) which was supplemented with 10 percent fetal bovine serum, 100 I.U./ml penicillin, 100 μg/ml streptomycin, 20 μg/ml gentamicin, and 25 mM HEPES.
The resulting cultures were incubated at 37° C. […] The cultures were then scored microscopically for syncytia formation. […] Data are expressed as percent of a control value (no added test agent) viral titer and plotted as a function of concentration of the test agent. lC50 values (concentration of agent causing 50 percent inhibition) were calculated from the plots of concentration versus viral titer using curve-fitting software.

[4] = system: Chlamydia trachomatis (serotype E/UW-5/CS); assay: Chlamydia multiplication assay in HeLa monolayers; type: cell-based
Procedure: This example illustrates the inhibitory effect of several of the inhibitory agents of this invention on Chlamydia trachomatis using a multiplication assay. Immediately before the assay, cryopreserved Chlamydia trachomatis (serotype E/UW-5/CS) samples were quickly thawed at 37° C. and suspended in Hank's balanced salt solution (HBSS) by mild sonication. Serial 1:10 dilutions (10^-1 to 10^-7) of the bacterial suspension were made. HeLa monolayers on coverslips were inoculated with 100 μl of the chlamydia samples in the presence (0.1, 1.0, 10, 100, and 1000 μg/ml) or absence of the test agents. After one hour, the monolayers were washed with HBSS to remove free chlamydia and test agent (if present) and then incubated for 48 hours in HBSS at 37° C.
After the medium was removed, the HeLa monolayer samples were fixed in methanol and washed. The cells were then treated with Kallsted Chlamydia Culture Confirmation fluorescein-conjugated Monoclonal Antibody for 30 minutes at room temperature in a dark, humidified chamber. The cells were then washed with water and covered with coverslip using a mounting medium. Inclusions due to chlamydia infection were visualized with a fluorescent microscope as green fluorescence.

HSV (type 2, strain 333) = assay: Anti-HSV plaque assay on Vero cells; type: cell-based, herpes simplex virus
Procedure: Viral infectivity was measured by co-culturing herpes simplex virus (HSV) with Vero (African green monkey kidney) cells in phosphate-buffered solutions.
The test agent was serially diluted (0.1 μg/ml to 500 μg/ml) in phosphate-buffered saline (PBS). Each dilution was mixed with HSV (type 2, strain 333). Samples (1 ml) of each mixture were plated in triplicate on washed and drained monolayers of Vero (African green monkey kidney) cells on the bottom of […] flasks. The initial titer in each culture was determined as plaque forming units per milliliter using control cultures with no added test agents. Flasks were incubated at 37° C. for 2 hours and the medium (containing virus and test agent) removed. After washing the cells with PBS, the cells were cultured in supplemented medium 199 (Sigma Chem., cat. no. M9163) for 3 days. After culturing, the cells were stained with Giemsa and the number of viral plaques was determined by phase contrast microscopy. After correcting for dilutions, the viral titer was estimated from the number of plaques. Data were also expressed as the percentage of plaques relative to the control samples (not exposed to test agents). […] The concentration of test agent that was required to reduce the viral titer by 50 percent (IC50) was estimated with curve-fitting software from plots of plaque-forming units per milliliter against the concentration of test agent.

[5] = system: human immunodeficiency virus (HIV-1, RF strain); assay: microbe, parasite or virus in culture; details: Human immunodeficiency virus 1, read-out: kill of the virus in culture
Procedure: For the cell-free virus inactivation assay, HIV is added to the test agent in water and incubated for about 2 minutes. After removal of the test agent by dilution, the treated virus is added to target cells and incubated for 7 days.

physchem = type: physicochemical
rabbit spermatozoa [6] = assay: Contraceptive effect: rabbit sperm treated before artificial insemination; type: in vivo
Procedure: Rabbit spermatozoa were collected and then diluted in a TALP buffer containing glucose, lactate, and pyruvate. Test compounds were dissolved in the same buffer system.

**Q.** What does the source list for Nonoxynol-9 [reference compound]?
**A.** inhibition of Lactobacillus gasseri growth (Lactobacillus gasseri; 0.5 mg/ml): about 60%; IC50 [1]: inactive; concentration that can injure cells [2]: about 0.0005%; cytotoxicity towards the MT2 cells (MT2 cells): did show cytotoxic effects

**Q.** Which results are given for O=C(O)C(OC(C(=O)O)c1ccccc1)c1ccccc1 (stereo not drawn) [H2 SO4 -modified Mandelic Acid, 2,2'-diphenyl-2,2'-oxy-di-acetic acid]?
**A.** effect on normal vaginal flora (Lactobacillus gasseri): no apparent adverse effects; effect on the growth of Lactobacillus (Lactobacillus gasseri; 5 mg/ml): did not have any effect; also recorded: not affected; inhibition of gonococcal multiplication/growth (Neisseria gonorrhea; 100 μg/ml): completely inhibited; also recorded: complete inhibition; IC50 (Neisseria gonorrhea; Neisseria, gonococcal multiplication, 4 hours): 15 to 17 µg/mL (≈ 0.0524 to 0.0594 mM); Emax at 0.5 µg/mL (sperm): ~70%; sperm motility (rabbit spermatozoa [3]): did not effect sperm motility; sperm motility (spermatozoa): did not result in the loss of sperm motility; IC50 (HIV-1; Human immunodeficiency virus 1, HIV-1, MT2 cells): 0.3 µg/mL (≈ 0.00105 mM); IC100 (HIV-1; Human immunodeficiency virus 1, read-out: Complete Inhibition (lowest concentration at which complete inhibition occurs), HIV-1, MT2 cells): 5 µg/mL; IC50 [4]: 0.05 µg/mL (≈ 0.000175 mM); HSV inhibition in culture (HSV (type 2, strain 333); 10 μg/ml): completely inhibited; IC99.9 (HSV (type 2, strain 333); Vero, read-out: Inhibition 3-Log (99.9 percent), concentration): 6.8 µg/mL; IC99.99 (HSV (type 2, strain 333); Vero, read-out: Inhibition 4-Log (99.99 percent), concentration): 10 µg/mL; reversibility of hyaluronidase inhibition ([1]; enzyme activity at different levels of enzyme): irreversible; IC50 [1]: 8.4 µg/mL (≈ 0.0293 mM); killing at 10 µg/mL [5]: ~99%; water solubility (in words) (physchem): water soluble; solubility (physchem; water): ~350 mg/mL (≈ 1220 mM); fertilization (average) (rabbit spermatozoa [6]; 5 mg/ml added to sperm/buffer, about 15 minutes at 37° C., controls about 96 percent): about 10%; conception (rabbit spermatozoa [6]; rabbit sperm treated with about 5 mg/ml prior to artificial insemination): nearly complete inhibition of conception
